According to patent US3949075A, “Anti-microbial compounds of 2', 4' substituted anilides of substituted nitrosalicylic acid for quadruped animals” (Ferro Corporation, priority 1974, dated 1976):
Where two headings read alike, the source gives them in different places.

Columns and labels:
Haemonchus contortus = assay: Percent of Haemonchus destroyed or expelled in infected sheep (egg count after treatment); type: in vivo, Haemonchus contortus (in sheep)
Protocol: Two groups of sheep were used in the tests. One group was used as a non-medicated control, while the other group was treated with the compound under investigation. Helminth-free young lambs were infected with about 10,000 filariform larvae of Haemonchus contortus. In three weeks when the infection became apparent, egg counts were made to determine the density of the worm burden.
The egg count was carried out using the following modified Stoll method. Three grams of sheep feces were taken rectally from each animal and placed in a Stoll flask. To each flask, tap water was added to the top line. The fecal pellets were too hard to break down, the flasks were closed with rubber stoppers and kept in the refrigerator for several hours. The flasks were thoroughly shaken and a 1 ml. sample was drawn from the middle using a wide mouth pipette. This 1 ml. sample was transferred to an 8 ml. plastic tube, to which enough saturated sodium chloride solution was added to reach the rim. The tubes were then centrifuged for 10 minutes at 1500 r.p.m. Then sodium chloride solution was added with a medicine dropper forming a concave miniscus. A cover glass was carefully added and the tubes were kept in a refrigerator for ten to twenty minutes. During that period, the nematode ova flowed upward and adhered to the bottom of the cover glass slip. At the end of the 20-minute period, the cover slip was carefully detached from the miniscus and transferred to a microscopic slide. The ova were then counted under a microscope equipped with 10X ocular and 10X objective lens. Each ovum under the microscope represented 20 ova in the sample.
Animals with sufficiently high egg counts were taken out of the pool and housed in experimental pens. Since the salicylanilides of the present invention are water insoluble, the compounds were first ground using a mortar and pestle and then were placed in a carboxymethyl cellulose solution. The particles were further micronized ultrasonically. The compound was then administered to two or three animals by Oesophageal gavage. Control, untreated animals, received only the carboxymethyl cellulose solution in a similar manner. On the sixth and seventh day after treatment, fecal pellets were taken from the rectum of the control as well as the treated animals and egg counts were made.
The results of tests on sheep in a manner described, supra, using compounds of the present invention are given in Table 1, Examples 5 through 13. The numbers in the column headed "Haemonchus (15 mg/kg)" refer to the percent of parasites destroyed or expelled when the indicated compound was introduced into the rumen of sheep at a dosage of 15 milligrams per kilogram of body weight. The values under "Tolerance (mg/kg)" refer to the highest test dosage in the milligrams of anthelmintic per kilogram of body weight at which the sheep developed no toxic symptoms. "Tol." is an abbreviation for "tolerated". The symbols R1 and R2 refer to those of Formula I in these and other following examples.
(§1) The data of the tables were generated using procedures previously described. The compounds tested are disubstituted and, except for Example 50 which is dibromo, are dichloro. Where the position for the substituents is other than 2' and 4', it is indicated. Under the indicated microorganisms, the values given in this and the following tables, should be read as: percentage of microorganism killed/dose in milligrams per kilogram of body weight. Under "Tolerance", the term "Tol." means "tolerated", "Tox." means "toxic", and "Sym." means "symptoms of toxic reaction", all at the dosage value which follows. It will be appreciated that there is no sharp toxicity end point in determining toxicity to living sheep.

Fasciola hepatica = assay: Test for activity against liver flukes, Fasciola hepatica, in infected sheep; type: in vivo; conditions: Fasciola hepatica; sheep, 15 mg/kg; Tables VIII-XI; read-out: Fasciola hepatica, percentage of microorganism killed
Protocol: Test for activity against liver flukes were conducted as follows:
Eggs of Fasciola hepatica were collected from the bile of donor sheep. The eggs were embryonated and snails were infected (the genus Lymnaea serves as intermediate host) to produce Metacercariae which are the infective forms for sheep. Each sheep was infected with 250 metacercariae intraruminally. When the infection became patent in ca. 80 days, egg counts were carried out to determine the degree of worm burden. The liver was processed to recover F. hepatica in the untreated and treated sheep.
as §1

[1] = Haemonchus contortus, sheep, 15 mg/kg, Table V, read-out: Effectiveness at 15 mg/kg against Haemonchus
[2] = Haemonchus contortus, sheep, 15 mg/kg, Tables VIII-XI, read-out: Haemonchus, percentage of microorganism killed
[3] = Haemonchus contortus, read-out: Effectiveness at 15 mg/kg against Haemonchus, sheep, 15 mg/kg, Table V
[4] = Haemonchus contortus, sheep, intrarumenal, 15 mg/kg, Table II, read-out: Effectiveness in removal of Haemonchus

Row | Structure (SMILES) | inhibition in vivo at 15 mg/kg (Haemonchus contortus; [1]) [%] | inhibition in vivo at 15 mg/kg (Haemonchus contortus; [2]) [%] | inhibition in vivo at 15 mg/kg (Haemonchus contortus; [4]) [%] | further results
1 | Cc1c([N+](=O)[O-])cc(C(C)(C)C)c(O)c1C(=O)Nc1cccc(Cl)c1 [31 Cl 3'-substitution] | 0 | 0 |  | 
2 | Cc1c([N+](=O)[O-])cc(C(C)(C)C)c(O)c1C(=O)Nc1cccc(I)c1 [33 I 3'-substitution] |  | 14 |  | inhibition in vivo at 15 mg/kg (Haemonchus contortus; [3]): 0%
3 | Cc1c([N+](=O)[O-])cc(C(C)(C)C)c(O)c1C(=O)Nc1cccc(C(F)(F)F)c1 [34 CF3 3'-substitution] | 2 | 2 |  | 
4 | Cc1c([N+](=O)[O-])cc(C(C)(C)C)c(O)c1C(=O)Nc1ccc(I)cc1 [Example 9] |  | 93 |  | inhibition in vivo at 15 mg/kg (Haemonchus contortus; [3]): 93%; inhibition in vivo at 5 mg/kg (Haemonchus contortus; Haemonchus contortus, sheep, 5 mg/kg, Tables VIII-XI, read-out: Haemonchus, percentage of microorganism killed): 22%; Haemonchus (2 mg/kg), percent of parasites destroyed or expelled (Haemonchus contortus; sheep, into rumen, 2 mg/kg, Table 1): 14%; Haemonchus (5 mg/kg), percent of parasites destroyed or expelled (Haemonchus contortus; sheep, into rumen, 5 mg/kg, Table 1): 22%; Haemonchus (15 mg/kg), percent of parasites destroyed or expelled (Haemonchus contortus; sheep, into rumen, 15 mg/kg, Table 1): 93%; inhibition in vivo at 15 mg/kg (Fasciola hepatica): 0%
5 | Cc1c([N+](=O)[O-])cc(C(C)(C)C)c(O)c1C(=O)Nc1ccccc1C(F)(F)F [Example 14] | 0 | 0 | 0 | 
6 | Cc1c([N+](=O)[O-])cc(C(C)(C)C)c(O)c1C(=O)Nc1ccccc1F [Example 15] |  |  | 0 | 
7 | Cc1c([N+](=O)[O-])cc(C(C)(C)C)c(O)c1C(=O)Nc1ccccc1Cl [Example 16] | 33 | 33 | 33 | 
8 | Cc1c([N+](=O)[O-])cc(C(C)(C)C)c(O)c1C(=O)Nc1ccccc1Br [Example 17] | 0 | 0 | 0 | 
9 | Cc1c([N+](=O)[O-])cc(C(C)(C)C)c(O)c1C(=O)Nc1ccccc1I [Example 18] |  | 0 | 0 | inhibition in vivo at 15 mg/kg (Haemonchus contortus; [3]): 0%
10 | Cc1c([N+](=O)[O-])cc(C(C)(C)C)c(O)c1C(=O)Nc1ccc(S(N)(=O)=O)cc1 [Example 19] |  |  | 0 | 
11 | CCOC(=O)c1ccc(NC(=O)c2c(C)c([N+](=O)[O-])cc(C(C)(C)C)c2O)cc1 [Example 20] |  |  | 18 | 
12 | Cc1ccc(NC(=O)c2c(C)c([N+](=O)[O-])cc(C(C)(C)C)c2O)c(C)c1 [Example 21] |  |  | 13 | 
13 | COc1cc(Cl)ccc1NC(=O)c1c(C)c([N+](=O)[O-])cc(C(C)(C)C)c1O [Example 22] |  |  | 10 | 
